Reference: the supplement of paper PMC10307832

How the values were obtained:
Test in all cases: relative viability (nuclei count vs DMSO), 5 days (fraction); higher = more cells survive
[1] = compound: CC(C)C[C@@H](C(=O)N[C@H](C(=O)OC1CCCC1)c1ccccc1)[C@H](O)C(=O)NO [Tosedostat] + CS(=O)(=O)N1CCN(Cc2cc3nc(-c4cccc5[nH]ncc45)nc(N4CCOCC4)c3s2)CC1 [Pictilisib] (partner 1 µM)
In short: (§1)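 The day after seeding in 1536-well plates, lung cancer cell lines were treated by pin tool with a single drug, or with a fixed anchor-drug dose together with five library-drug doses (not always all listed) in √10 steps. After 5 days, a combined fix-and-stain solution (final 0.05% Triton X-100, 1% formaldehyde, 1 ug/ml Hoechst) was added. Nuclei counted on 4× images gave relative viability as treated counts over vehicle counts, reported as the median of duplicate plates.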

[2] = compound: CC1=NN=C(O1)C2=NN=C(C=C2)N3CCC(CC3)OC4=C(C=CC(=C4)F)Cl + N=C(N)NC(=N)NCCc1ccccc1 [Phenformin] (partner 250 µM)
In short: as §1

[3] = compound: CC1=NN=C(O1)C2=NN=C(C=C2)N3CCC(CC3)OC4=C(C=CC(=C4)F)Cl + CC(C)C[C@H](NC(=O)[C@H](Cc1ccccc1)NC(=O)c1cnccn1)B(O)O [Bortezomib] (partner 0.002 µM)
In short: as §1

[4] = compound: CC(C)C[C@@H](C(=O)N[C@H](C(=O)OC1CCCC1)c1ccccc1)[C@H](O)C(=O)NO [Tosedostat] + C[C@@H](Oc1cc(-c2cnn(C3CCNCC3)c2)cnc1N)c1c(Cl)ccc(F)c1Cl [Crizotinib] (partner 1 µM)
In short: as §1

Question: UMC-11 was tested. Which relative viability ([1]; first compound 0.02 µM) did it give?
Answer: The relative viability was 0.911.

Question: And the relative viability ([1]; first compound 0.06325 µM)?
Answer: The relative viability was 0.807.

Question: And the relative viability ([1]; first compound 0.2 µM)?
Answer: Its relative viability is 0.782.

Question: And the relative viability ([1]; first compound 0.6325 µM)?
Answer: Its relative viability is 0.705.

Question: What about the relative viability ([1]; first compound 2 µM) of the same cell line?
Answer: The relative viability was 0.828.

Question: And the relative viability ([2]; first compound 0.253 µM)?
Answer: The relative viability was 0.288.

Question: What about the relative viability ([2]; first compound 0.8 µM) of the same cell line?
Answer: Its relative viability is 0.291.

Question: What about the relative viability ([2]; first compound 2.53 µM) of the same cell line?
Answer: Its relative viability is 0.263.

Question: And the relative viability ([2]; first compound 8 µM)?
Answer: Its relative viability is 0.263.

Question: And the relative viability ([3]; first compound 0.253 µM)?
Answer: The relative viability was 0.66.

Question: What about the relative viability ([3]; first compound 0.8 µM) of the same cell line?
Answer: The relative viability was 0.533.

Question: And the relative viability ([3]; first compound 2.53 µM)?
Answer: Its relative viability is 0.636.

Question: And the relative viability ([3]; first compound 8 µM)?
Answer: Its relative viability is 0.575.

Question: And the relative viability ([4]; first compound 0.02 µM)?
Answer: The relative viability was 0.688.

Question: What about the relative viability ([4]; first compound 0.06325 µM) of the same cell line?
Answer: The relative viability was 0.648.

Question: What about the relative viability ([4]; first compound 0.2 µM) of the same cell line?
Answer: The relative viability was 0.6.

Question: What about the relative viability ([4]; first compound 0.6325 µM) of the same cell line?
Answer: The relative viability was 0.559.

Question: And the relative viability ([4]; first compound 2 µM)?
Answer: Its relative viability is 0.459.
